Earlier results, collected in patent publication US20200368373A1, “OPTICAL IMAGING AGENTS TARGETING INFLAMMATION” (SORBONNE UNIVERSITE, priority 2018, published 2020).

Target: T1, selectin E (Mus musculus, UniProt Q00690)
T1 sequence (Q00690 22-612): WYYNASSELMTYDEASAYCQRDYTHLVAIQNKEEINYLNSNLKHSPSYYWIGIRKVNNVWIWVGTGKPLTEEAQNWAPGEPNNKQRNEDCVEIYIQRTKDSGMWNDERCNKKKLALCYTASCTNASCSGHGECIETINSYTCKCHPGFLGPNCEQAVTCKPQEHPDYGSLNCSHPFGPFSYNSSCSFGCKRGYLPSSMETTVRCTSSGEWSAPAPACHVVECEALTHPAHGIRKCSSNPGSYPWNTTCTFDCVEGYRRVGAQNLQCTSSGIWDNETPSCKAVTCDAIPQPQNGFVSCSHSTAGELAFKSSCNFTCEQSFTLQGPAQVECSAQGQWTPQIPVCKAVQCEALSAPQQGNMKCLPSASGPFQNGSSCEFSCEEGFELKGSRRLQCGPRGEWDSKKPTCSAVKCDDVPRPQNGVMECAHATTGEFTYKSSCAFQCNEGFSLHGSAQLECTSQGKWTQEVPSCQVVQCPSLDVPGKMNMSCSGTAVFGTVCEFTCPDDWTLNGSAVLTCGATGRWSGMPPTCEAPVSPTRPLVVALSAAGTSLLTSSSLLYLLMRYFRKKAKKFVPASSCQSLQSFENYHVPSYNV
Details: known in the art

affinity for selectin E: high affinity
Substance: Sialyl Lewis X
